Where “and” joins values, the source holds several entries; their conditions need not be identical. Identical values can stand only once. Toxic doses and inconclusive results are not listed. Cut-off read from the data, not from the text of the source: active = T/C of 150% or more; inactive = T/C below 125%.
Test system: L1210 leukemia ip in BDF1 mice, survival T/C
Experiment: NCI In Vivo Anticancer Drug Screen. Data for tumor model L1210 Leukemia (intraperitoneal) in B6D2F1 (BDF1) mice
Settings: endpoint: mean survival time, higher = longer survival
Procedure, shortened: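 Survival endpoint. Drug-treated group vs vehicle group, expressed as T divided by C. Tumor passaged by transplantation.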

[1] = dose: 50.0 mg/kg/injection, schedule: Q01DX009 (ip), vehicle: Klucel (hydroxypropylcellulose) (HPC)
[2] = dose: 100.0 mg/kg/injection, schedule: Q01DX009 (ip), vehicle: Klucel (hydroxypropylcellulose) (HPC)
[3] = dose: 100.0 mg/kg/injection, schedule: Q04DX003 (ip), vehicle: Klucel (hydroxypropylcellulose) (HPC)
[4] = dose: 200.0 mg/kg/injection, schedule: Q01DX009 (ip), vehicle: Klucel (hydroxypropylcellulose) (HPC)
[5] = dose: 200.0 mg/kg/injection, schedule: Q04DX003 (ip), vehicle: Klucel (hydroxypropylcellulose) (HPC)
[6] = dose: 400.0 mg/kg/injection, schedule: Q04DX003 (ip), vehicle: Klucel (hydroxypropylcellulose) (HPC)
[7] = dose: 100.0 mg/kg/injection, schedule: Q01DX009 (ip), vehicle: saline
[8] = dose: 100.0 mg/kg/injection, schedule: Q04DX003 (ip), vehicle: saline
[9] = dose: 200.0 mg/kg/injection, schedule: Q01DX009 (ip), vehicle: saline
[10] = dose: 200.0 mg/kg/injection, schedule: Q04DX003 (ip), vehicle: saline
[11] = dose: 400.0 mg/kg/injection, schedule: Q04DX003 (ip), vehicle: saline
[12] = dose: 100.0 mg/kg/injection, schedule: Q01DX009 (ip), vehicle: saline sonified
[13] = dose: 200.0 mg/kg/injection, schedule: Q01DX009 (ip), vehicle: saline sonified
[14] = dose: 50.0 mg/kg/injection, schedule: Q01DX009 (ip), vehicle: saline with Tween-80
[15] = dose: 100.0 mg/kg/injection, schedule: Q04DX003 (ip), vehicle: saline with Tween-80
[16] = dose: 200.0 mg/kg/injection, schedule: Q04DX003 (ip), vehicle: saline with Tween-80

Measured: T/C

Cc1cccc(CN2CCN(C(c3ccccc3)c3ccc(Cl)cc3)CC2)c1 (stereo not drawn)
inactive: dose: 25.0 mg/kg/injection, schedule: Q01DX009 (ip), vehicle: Klucel (hydroxypropylcellulose) (HPC) 100 % of control | dose: 25.0 mg/kg/injection, schedule: Q04DX003 (ip), vehicle: Klucel (hydroxypropylcellulose) (HPC) 100 % of control | [1] 100 % of control | dose: 50.0 mg/kg/injection, schedule: Q04DX003 (ip), vehicle: Klucel (hydroxypropylcellulose) (HPC) 110 % of control | [2] 94 % of control | [3] 105 % of control | [4] 87 % of control | [5] 118 % of control | [6] 89 % of control

C[N+](C)(C)Cc1c(CC(O)(c2ccccc2)c2ccccc2)ccc2ccccc12
inactive: dose: 50.0 mg/kg/injection, schedule: Q01DX001 (ip), vehicle: carboxymethylcellulose (CMC) 102 % of control | dose: 100.0 mg/kg/injection, schedule: Q01DX001 (ip), vehicle: carboxymethylcellulose (CMC) 94 % of control

O=C(Cn1cc(F)c(=O)[nH]c1=O)c1cccs1
inactive: [7] 89 % of control | [8] 100 % of control | [9] 89 % of control | [10] 106 % of control | dose: 400.0 mg/kg/injection, schedule: Q01DX009 (ip), vehicle: saline 89 % of control | [11] 111 % of control

O=Cc1ccc(C=O)c(Cl)c1
inactive: [12] 100 % of control | [3] 100 % of control | [13] 87 % of control | [5] 95 % of control | dose: 400.0 mg/kg/injection, schedule: Q01DX009 (ip), vehicle: saline sonified 94 % of control | [6] 103 % of control

CC(=O)NC1CCCCC1CC1CCCCC1 (stereo not drawn)
inactive: dose: 75.0 mg/kg/injection, schedule: Q01DX009 (ip), vehicle: Klucel (hydroxypropylcellulose) (HPC) 103 % of control | [3] 102 % of control | dose: 150.0 mg/kg/injection, schedule: Q01DX009 (ip), vehicle: Klucel (hydroxypropylcellulose) (HPC) 93 % of control | [5] 98 % of control | dose: 300.0 mg/kg/injection, schedule: Q01DX009 (ip), vehicle: Klucel (hydroxypropylcellulose) (HPC) 96 % of control | [6] 98 % of control

O=C(Nc1ccc(Cl)cc1)C(=O)Nc1ccc(Cl)cc1
inactive: dose: 100.0 mg/kg/injection, schedule: Q04DX002 (ip), vehicle: gum acacia 107 % of control | dose: 200.0 mg/kg/injection, schedule: Q04DX002 (ip), vehicle: gum acacia 89 % of control | dose: 400.0 mg/kg/injection, schedule: Q04DX002 (ip), vehicle: gum acacia 93 % of control

[Cl][Ge]([Cl])([c]1ccccc1)[c]1ccccc1
inactive: [1] 96 % of control | [2] 96 % of control | [3] 98 % of control | [5] 94 % of control

C[C@H]1C[C@H]2[C@@H]3CC[C@](O)(C(=O)CO)[C@@]3(C)C[C@H](O)[C@]2(F)[C@@]2(C)C=CC(=O)C=C12
inactive: dose: 25.0 mg/kg/injection, schedule: Q01DX001 (sc), vehicle: steriod suspending solution 103 % of control | dose: 50.0 mg/kg/injection, schedule: Q01DX001 (sc), vehicle: steriod suspending solution 100 % of control | dose: 50.0 mg/kg/injection, schedule: Q04DX003 (sc), vehicle: Klucel (hydroxypropylcellulose) (HPC) 88 % of control | dose: 100.0 mg/kg/injection, schedule: Q01DX001 (sc), vehicle: steriod suspending solution 94 % of control | dose: 100.0 mg/kg/injection, schedule: Q04DX003 (sc), vehicle: Klucel (hydroxypropylcellulose) (HPC) 98 % of control | dose: 200.0 mg/kg/injection, schedule: Q01DX001 (sc), vehicle: steriod suspending solution 98 % of control | dose: 200.0 mg/kg/injection, schedule: Q04DX003 (sc), vehicle: Klucel (hydroxypropylcellulose) (HPC) 90 % of control

CCOC(=O)Cc1cnc(SC)nc1Cl
inactive: [14] 98 % of control | dose: 100.0 mg/kg/injection, schedule: Q01DX009 (ip), vehicle: saline with Tween-80 91 % of control | [15] 92 % of control | dose: 200.0 mg/kg/injection, schedule: Q01DX009 (ip), vehicle: saline with Tween-80 88 % of control | [16] 92 % of control

CN(C)c1ccc(C=C(c2ccc(N)cc2)c2ccc(N)cc2)cc1
inactive: [15] 93 % of control | [16] 96 % of control | dose: 400.0 mg/kg/injection, schedule: Q04DX003 (ip), vehicle: saline with Tween-80 96 % of control

CCCCCCCCCCCC(=O)[O][Pb]([CH2]CCC)([CH2]CCC)[O]C(=O)CCCCCCCCCCC
inactive: dose: 6.25 mg/kg/injection, schedule: Q04DX002 (ip), vehicle: gum acacia 95 % of control | dose: 12.5 mg/kg/injection, schedule: Q04DX002 (ip), vehicle: gum acacia 92 % of control and 98 % of control | dose: 25.0 mg/kg/injection, schedule: Q04DX002 (ip), vehicle: gum acacia 88 % of control

COc1cccc[n+]1CC(=O)c1ccccc1
inactive: [1] 95 % of control | [2] 98 % of control | [4] 95 % of control

CCOC(=O)c1cnc2c(OC)cccc2c1Cl
inactive: [7] 98 % of control | [8] 102 % of control | [9] 96 % of control | [10] 109 % of control | [11] 98 % of control

C[n+]1c2c(cc3ccccc31)CCC2
inactive: dose: 12.5 mg/kg/injection, schedule: Q01DX009 (ip), vehicle: saline with Tween-80 87 % of control | dose: 25.0 mg/kg/injection, schedule: Q01DX009 (ip), vehicle: saline with Tween-80 97 % of control | [14] 108 % of control and 90 % of control

CCCCCCCCCCCCO[P+](=O)OCCCCCCCCCCCC
inactive: [12] 93 % of control | [8] 95 % of control | [13] 93 % of control | [10] 100 % of control | dose: 222.0 mg/kg/injection, schedule: Q01DX Z (ip), vehicle: methylcellulose (MC) 96 % of control | dose: 333.0 mg/kg/injection, schedule: Q01DX Z (ip), vehicle: methylcellulose (MC) 95 % of control | [11] 90 % of control

CC(=O)OCCN1CCC(n2ccc(=O)[nH]c2=O)C1=O (stereo not drawn)
inactive: [8] 104 % of control | [10] 104 % of control | [11] 106 % of control

Cc1cc(OC(=O)c2ccc(N)cc2)ccc1C1=NCC(C)S1 (stereo not drawn)
inactive: dose: 25.0 mg/kg/injection, schedule: Q04DX002 (ip), vehicle: DMSO 89 % of control | dose: 50.0 mg/kg/injection, schedule: Q04DX002 (ip), vehicle: DMSO 92 % of control | dose: 100.0 mg/kg/injection, schedule: Q04DX002 (ip), vehicle: DMSO 100 % of control

CCCCCCCCCCCCCCCC(=O)SCCSC(=O)CCCCCCCCCCCCCCC
inactive: dose: 87.5 mg/kg/injection, schedule: Q04DX003 (ip), vehicle: other 93 % of control | dose: 175.0 mg/kg/injection, schedule: Q04DX003 (ip), vehicle: other 93 % of control

CC(=O)OC1CCC2(C)C(=CCC3C2CCC2(C)C(C(C)C(O)C4C(=O)OCC4C(c4ccccc4)(c4ccccc4)c4ccccc4)CCC32)C1 (stereo not drawn)
inactive: dose: 100.0 mg/kg/injection, schedule: Q04DX002 (sc), vehicle: gum acacia 95 % of control | dose: 200.0 mg/kg/injection, schedule: Q04DX002 (sc), vehicle: gum acacia 95 % of control | dose: 400.0 mg/kg/injection, schedule: Q04DX002 (sc), vehicle: gum acacia 92 % of control

Source: PubChem BioAssay AID248 (DTP/NCI, 2004)
